US7119213B2, “Pharmacologically active isolated or purified dauer pheromone compound for controlling aging and stress and method for isolating and characterizing the same” (priority 2002, dated 2006)

System: C. elegans
Experiment: Dauer inducing activity assay (dauer test on worms grown in S medium)
Format: in vivo
Procedure: To examine whether this ethanol extract (A) can induce dauer larva phase, dauer test is performed on the worms that had been grown in the S medium.
Briefly, the dried A was dissolved in double distilled water and extracted with the equal volume of ethyl acetate. This extraction procedure was repeated 5 times.
After confirming the dauer inducing activity of B, extracts obtained by the above-described process are loaded onto a silica-gel absorption column which has been equilibrated with hexane: ethyl acetate: methanol=7:7:1. An active form of dauer pheromone (C) that were adsorbed onto the column was eluted with methanol.
To further purify C, HPLC separation is carried out using amine column. Briefly, the fraction C is dissolved in methanol and diluted with double distilled water (MeOH: ddH2O=1:1). This solution containing C is loaded onto the amine column, which is equilibrated with isopropanol solution (isopropanol: water=1:1). A dauer pheromone fraction bound to the column (Fraction D) was eluted with a gradient solution of the same solvent.
Table 5 outlines the result of dauer inducing assay using the active fractions D from the amine column chromatography. Finally, a dauer pheromone (E) is completely isolated and purified refined by size exclusion column chromatography using methanol as an eluent solution.
The pure dauer pheromone characterized by the above described procedures is defined as the structural formula I, and its chemical formula is 6-(3,5-dihydroxy-6-methyl-tetrahydro-pyran-2-yloxy)-heptanoic acid or its sodium salt.

CC(CCCCC(=O)O)OC1OC(C)C(O)CC1O (stereo not drawn) [W251 column fraction (purified form), 6-(3,5-dihydroxy-6-methyl-tetrahydro-pyran-2-yloxy)-heptanoic acid]
Formation of dauer larva stage (%) (dauer test on C. elegans): 100% | Population in dauer larva stage (number of worms in dauer larva stage in the dauer test): 62 | Induction of dauer phase (in words) (pure pheromone added onto the media): markedly induce the worm into dauer phase
